Assay results as given in patent US8618154B2, “LXR modulators” (Bristol-Myers Squibb Company, priority 2009, dated 2013).

Molecular target: T1, LXRα (Homo sapiens, UniProt Q13133)
T1 construct: Co-transfection expression plasmids, comprising full-length LXRα (pCMX-h LXRα); expressed in transfected cells; host or cells: CV-1 African green monkey kidney cells, transient transfection with FuGENE6
T1 sequence (Q13133 1-447): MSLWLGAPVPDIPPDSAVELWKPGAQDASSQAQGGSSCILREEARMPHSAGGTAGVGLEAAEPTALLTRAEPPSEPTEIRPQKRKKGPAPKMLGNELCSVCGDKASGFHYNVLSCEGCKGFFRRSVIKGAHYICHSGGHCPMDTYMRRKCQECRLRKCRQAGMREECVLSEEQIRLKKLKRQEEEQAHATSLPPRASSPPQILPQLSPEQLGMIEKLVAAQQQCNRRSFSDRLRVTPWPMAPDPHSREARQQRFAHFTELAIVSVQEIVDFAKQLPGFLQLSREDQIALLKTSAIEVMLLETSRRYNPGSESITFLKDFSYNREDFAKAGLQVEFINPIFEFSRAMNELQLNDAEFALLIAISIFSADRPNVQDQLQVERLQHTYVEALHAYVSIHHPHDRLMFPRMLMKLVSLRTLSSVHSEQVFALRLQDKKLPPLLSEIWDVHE
T1 sequence (P19793 1-462 partner): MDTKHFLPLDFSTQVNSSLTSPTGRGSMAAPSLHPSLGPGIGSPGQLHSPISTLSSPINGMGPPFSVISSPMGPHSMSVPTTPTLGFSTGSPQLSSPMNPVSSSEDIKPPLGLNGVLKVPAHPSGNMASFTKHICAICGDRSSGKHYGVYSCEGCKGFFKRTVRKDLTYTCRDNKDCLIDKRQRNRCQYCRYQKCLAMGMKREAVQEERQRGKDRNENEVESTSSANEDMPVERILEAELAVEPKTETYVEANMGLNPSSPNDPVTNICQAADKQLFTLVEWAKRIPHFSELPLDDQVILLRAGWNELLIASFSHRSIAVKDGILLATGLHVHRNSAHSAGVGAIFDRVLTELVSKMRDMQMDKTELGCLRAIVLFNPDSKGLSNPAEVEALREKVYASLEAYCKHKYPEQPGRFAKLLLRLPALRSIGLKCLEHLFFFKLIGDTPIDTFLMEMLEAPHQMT
Assay: LXR/LXRE co-transfection assay (LXRα)
Format: cell-based
Settings: for EC50: CV-1 cells, LXRE luciferase reporter; for Emax: efficacy relative to high control N-(3-((4-fluorophenyl)-(naphthalene-2-sulfonyl)amino)propyl)-2,2-dimethylpropionamide, read-out: LXRα Eff (%)
Source text: To measure the ability of compounds to activate or inhibit the transcriptional activity of LXR in a cell based assay, the co-transfection assay was used. It has been shown that LXR functions as a heterodimer with RXR. For the co-transfection assay, expression plasmids for LXRα and LXRβ are introduced separately via transient transfection into mammalian cells along with a luciferase reporter plasmid that contains one copy of a DNA sequence that is bound by LXR-RXR heterodimers (LXRE; Willy, P. et. al. 1995). LXRs heterodimerize with the endogenous RXR. Treatment of transfected cells with an LXR agonist increases the transcriptional activity of LXR, which is measured by an increase in luciferase activity.
Co-transfection expression plasmids, comprising full-length LXRα (pCMX-h LXRα or LXRβ (pCMX-hLXRβ), reporter plasmid (LXREx1-Tk-Luciferase), and control (pCMX-Galactosidase expression vector) (Willey et al. Genes & Development 9 1033-1045 (1995)).
CV-1 cells were prepared 24 hours prior to the experiment by plating them into T-175 flasks or 500 cm^2 dishes in order to achieve 70-80% confluency on the day of the transfection. The number of cells to be transfected was determined by the number of plates to be screened. Each well of a 384 well plate requires ˜8000 cells. DNA Transfection Reagent was prepared by mixing the required plasmid DNAs with a cationic lipid transfection reagent FuGENE6 (Roche) by following the instructions provided with the reagents. Optimal DNA amounts were determined empirically per cell line and size of vessel to be transfected. For each T175 cm^2 flask a total of 20 μg of DNA, 60 μl of Fugene 6 and 1 ml of Optimem was mixed and added. Cells were then incubated at least 5 hours at 37° C. to prepare screening cells.
Assay plates were prepared by dispensing 5 μL, of compound per well of a 384 well plate to achieve final compound concentration of 10 μM and no more than 0.5% DMSO. Media was removed from the screening cells, the cells trypsinized, harvested cells by centrifugation, counted, and plated at a density of approximately 8000 cells per well in the 384 well assay plate prepared above in a volume of about 45 μL. Assay plates containing both compounds and screening cells (50 μL, in total volume) were incubated for 20 hours at 37° C.
After incubation with compounds, media was removed from the cells and luciferase assay reagent (30 μL/well) added. After ˜2 minutes at ambient temperature, the assay plates were read on a luminometer (PE Biosystems Northstar reader with on-board injectors, or equivalent).
The LXR/LXRE co-transfection assay can be used to establish the EC50/IC50 values for potency and percent activity or inhibition for efficacy. Efficacy defines the activity of a compound relative to a high control ((N-(3-((4-fluorophenyl)-(naphthalene-2-sulfonyl)amino)propyl)-2,2-dimethylpropionamide)) or a low control (DMSO/vehicle). The dose response curves are generated from a 10 point curve with concentrations differing by ½ LOG units.
The data from this assay is fitted to the following equation, from which the EC50 value may be solved: Y=Bottom+(Top−Bottom)/(1+10^((logEC50-X)*HillSlope)).
The EC50/IC50 is therefore defined as the concentration at which an agonist or antagonist elicits a response that is half way between the Top (maximum) and Bottom (baseline) values. The EC50/IC50 values represented are the averages of at least 2 and normally 3 independent experiments. The determination of the relative efficacy or % control for an agonist is by comparison to the maximum response achieved by ((N-(3-((4-fluorophenyl)-(naphthalene-2-sulfonyl)-amino)propyl)-2,2-dimethylpropionamide) that is measured individually in each dose response experiment.

EC50 | Emax | Structure (SMILES)
101 to 1000 nM | 38% | CC(C)(O)c1cn(-c2ccc(-c3cccc(S(C)(=O)=O)c3)cc2)c(C(C)(C)c2ccccc2Cl)n1 [Compound No. 19, Table 1, WO 2007/002563, reference compound]
101 to 1000 nM | 13% | CC(C)(O)c1cn(-c2ccc(-c3cc(F)c(CO)c(S(C)(=O)=O)c3)cc2)c(C(C)(C)c2ccccc2F)n1 [Example 1, 2-(1-(3′-fluoro-4′-(hydroxymethyl)-5′-(methylsulfonyl)biphenyl-4-yl)-2-(2-(2-fluorophenyl)propan-2-yl)-1H-imidazol-4-yl)propan-2-ol]
< 100 nM | 10% | Cc1cc(-c2cc(F)c(CO)c(S(C)(=O)=O)c2)ccc1-n1cc(C(C)(C)O)nc1C(C)(C)c1c(F)cccc1Cl [Example 2, 2-(2-(2-(2-chloro-6-fluorophenyl)propan-2-yl)-1-(3′-fluoro-4′-(hydroxymethyl)-3-methyl-5′-(methylsulfonyl)biphenyl-4-yl)-1H-imidazol-4-yl)propan-2-ol]
< 100 nM | 6% | CC(C)(O)c1cn(-c2ccc(-c3cc(F)c(CO)c(S(C)(=O)=O)c3)cc2Cl)c(C(C)(C)c2c(Cl)cccc2Cl)n1 [Example 3, 2-(1-(3-chloro-3′-fluoro-4′-(hydroxymethyl)-5′-(methylsulfonyl)biphenyl-4-yl)-2-(2-(2,6-dichlorophenyl)propan-2-yl)-1H-imidazol-4-yl)propan-2-ol]
 | 12% | CC(C)(O)c1cn(-c2ccc(-c3cc(F)c(CO)c(S(C)(=O)=O)c3)cc2)c(C(C)(C)c2cccc(F)c2Cl)n1 [Example 4, 2-(2-(2-(2-chloro-3-fluorophenyl)propan-2-yl)-1-(3′-fluoro-4′-(hydroxymethyl)-5′-(methylsulfonyl)biphenyl-4-yl)-1H-imidazol-4-yl)propan-2-ol]
< 100 nM | 25% | CC(C)(O)c1cn(-c2ccc(-c3cc(F)c(CO)c(S(C)(=O)=O)c3)cc2)c(C(C)(C)c2c(Cl)cccc2Cl)n1 [Example 5, 2-(2-(2-(2,6-dichlorophenyl)propan-2-yl)-1-(3′-fluoro-4′-(hydroxymethyl)-5′-(methylsulfonyl)biphenyl-4-yl)-1H-imidazol-4-yl)propan-2-ol]
< 100 nM | 25% | CC(C)(O)c1cn(-c2ccc(-c3cc(F)c(CO)c(S(C)(=O)=O)c3)cc2F)c(C(C)(C)c2ccccc2Cl)n1 [Example 6, 2-(2-(2-(2-Chloro-phenyl)propan-2-yl)-1-(3,3′-difluoro-4′-hydroxymethyl-5′-(methylsulfonyl)biphenyl-4-yl)-1H-imidazol-4-yl)-propan-2-ol]
< 100 nM | 15% | CC(C)(O)c1cn(-c2ccc(-c3cc(F)c(CO)c(S(C)(=O)=O)c3)cc2F)c(C(C)(C)c2c(F)cccc2Cl)n1 [Example 7, 2-(2-(2-(2-chloro-6-fluorophenyl)propan-2-yl)-1-(3,3′-difluoro-4′-(hydroxymethyl)-5′-(methylsulfonyl)biphenyl-4-yl)-1H-imidazol-4-yl)propan-2-ol]
< 100 nM | 10% | CC(C)(O)c1cn(-c2ccc(-c3cc(F)c(CO)c(S(C)(=O)=O)c3)cc2F)c(C(C)(C)c2ccccc2F)n1 [Example 8, 2-{1-(3,3′-Difluoro-4′-hydroxymethyl-5′-methanesulfonyl-biphenyl-4-yl)-2-[2-(2-fluorophenyl)propan-2-yl]-1H-imidazol-4-yl}-propan-2-ol]
 | 20% | CC(C)(O)c1cn(-c2ccc(-c3cc(F)c(CO)c(S(C)(=O)=O)c3)cc2F)c(C(C)(C)c2c(Cl)cccc2Cl)n1 [Example 9, 2-(2-(2-(2,6-dichlorophenyl)propan-2-yl)-1-(3,3′-difluoro-4′-(hydroxymethyl)-5′-(methylsulfonyl)biphenyl-4-yl)-1H-imidazol-4-yl)propan-2-ol]
> 1000 nM |  | CC(C)(O)c1cn(-c2ccc(-c3cc(F)c(CO)c(S(C)(=O)=O)c3)cc2F)c(Cc2ccc(Cl)cc2Cl)n1 [Example 11, 2-(2-(2,4-dichlorobenzyl)-1-(3,3′-difluoro-4′-(hydroxymethyl)-5′-(methylsulfonyl)biphenyl-4-yl)-1H-imidazol-4-yl)propan-2-ol]
< 100 nM | 13% | CC(C)(O)c1cn(-c2ccc(-c3cc(F)c(CO)c(S(C)(=O)=O)c3)cc2F)c(Cc2ccccc2C(F)(F)F)n1 [Example 12, 2-(1-(3,3′-difluoro-4′-(hydroxymethyl)-5′-(methylsulfonyl)biphenyl-4-yl)-2-(2-(trifluoromethyl)benzyl)-1H-imidazol-4-yl)propan-2-ol]
< 100 nM | 18% | CC(C)(O)c1cn(-c2ccc(-c3cc(F)c(CO)c(S(C)(=O)=O)c3)cc2Cl)c(Cc2ccc(F)cc2Cl)n1 [Example 13, 2-(1-(3-chloro-3′-fluoro-4′-(hydroxymethyl)-5′-(methylsulfonyl)biphenyl-4-yl)-2-(2-chloro-4-fluorobenzyl)-1H-imidazol-4-yl)propan-2-ol]
< 100 nM | 15% | CC(C)(O)c1cn(-c2ccc(-c3cc(F)c(CO)c(S(C)(=O)=O)c3)cc2F)c(Cc2ccc(F)cc2Cl)n1 [Example 14, 2-(2-(2-chloro-4-fluorobenzyl)-1-(3,3′-difluoro-4′-(hydroxymethyl)-5′-(methylsulfonyl)biphenyl-4-yl)-1H-imidazol-4-yl)propan-2-ol]
< 100 nM | 8% | CC(C)(O)c1cn(-c2ccc(-c3cc(F)c(CO)c(S(C)(=O)=O)c3)cc2)c(Cc2ccc(Cl)cc2Cl)n1 [Example 15, 2-(2-(2,4-dichlorobenzyl)-1-(3′-fluoro-4′-(hydroxymethyl)-5′-(methylsulfonyl)biphenyl-4-yl)-1H-imidazol-4-yl)propan-2-ol]
< 100 nM | 19% | CC(C)(O)c1cn(-c2ccc(-c3cc(F)c(CO)c(S(C)(=O)=O)c3)cc2F)c(Cc2ccccc2F)n1 [Example 16, 2-(1-(3,3′-difluoro-4′-(hydroxymethyl)-5′-(methylsulfonyl)biphenyl-4-yl)-2-(2-fluorobenzyl)-1H-imidazol-4-yl)propan-2-ol]
